Laboratory results taken from ChEMBL document CHEMBL3792365, “Dioxol and dihydrodioxin analogs of 2- and 3-phenylacetonitriles as potent anti-cancer agents with nanomolar activity against a variety of human cancer cells” (2016).

Tests used:
Type in all cases: functional
[1] = Growth inhibition of human HOP92 cells at 10 uM after 48 hrs by sulforhodamine B assay; conditions: HOP-92, 48 h, values are per cent of control
[2] = system: ACHN; test: Growth inhibition of human ACHN cells at 10 uM after 48 hrs by sulforhodamine B assay; conditions: values are per cent of control
[3] = Growth inhibition of human OVCAR3 cells at 10 uM after 48 hrs by sulforhodamine B assay; conditions: OVCAR-3, 48 h, values are per cent of control
[4] = system: SK-MEL-5; test: Growth inhibition of human SK-MEL-5 cells at 10 uM after 48 hrs by sulforhodamine B assay; conditions: SK-MEL-5, 48 h, values are per cent of control
[5] = Growth inhibition of human MOLT4 cells at 10 uM after 48 hrs by sulforhodamine B assay; conditions: MOLT-4, 48 h, values are per cent of control
[6] = Growth inhibition of human HCT15 cells at 10 uM after 48 hrs by sulforhodamine B assay; conditions: HCT-15, 48 h, values are per cent of control
[7] = system: CCRF-CEM; test: Growth inhibition of human CCRF-CEM cells at 10 uM after 48 hrs by sulforhodamine B assay; conditions: values are per cent of control
[8] = Growth inhibition of human HL-60(TB) cells at 10 uM after 48 hrs by sulforhodamine B assay; conditions: HL-60, 48 h, values are per cent of control
[9] = Growth inhibition of human RPMI8226 cells at 10 uM after 48 hrs by sulforhodamine B assay; conditions: RPMI-8226, 48 h, values are per cent of control
[10] = system: SR; test: Growth inhibition of human SR cells at 10 uM after 48 hrs by sulforhodamine B assay; conditions: values are per cent of control
[11] = system: MCF7; test: Growth inhibition of human MCF7 cells at 10 uM after 48 hrs by sulforhodamine B assay; conditions: MCF7, 48 h, values are per cent of control
[12] = Growth inhibition of human UACC257 cells at 10 uM after 48 hrs by sulforhodamine B assay; conditions: UACC-257, 48 h, values are per cent of control
[13] = Growth inhibition of human RXF393 cells at 10 uM after 48 hrs by sulforhodamine B assay; conditions: RXF 393, 48 h, values are per cent of control
[14] = system: Malme-3M; test: Growth inhibition of human MALME-3M cells at 10 uM after 48 hrs by sulforhodamine B assay; conditions: values are per cent of control
[15] = system: 786-0; test: Growth inhibition of human 786-0 cells at 10 uM after 48 hrs by sulforhodamine B assay; conditions: 786-0, 48 h, values are per cent of control
[16] = Growth inhibition of human OVCAR8 cells at 10 uM after 48 hrs by sulforhodamine B assay; conditions: OVCAR-8, 48 h, values are per cent of control
[17] = Growth inhibition of human NCI-ADR-RES cells at 10 uM after 48 hrs by sulforhodamine B assay; conditions: values are per cent of control
[18] = Growth inhibition of human PC3 cells at 10 uM after 48 hrs by sulforhodamine B assay; conditions: PC-3, 48 h, values are per cent of control
[19] = Growth inhibition of human SKOV3 cells at 10 uM after 48 hrs by sulforhodamine B assay; conditions: SK-OV-3, 48 h, values are per cent of control

| SMILES | growth, % of control at 10 µM [1] | growth, % of control at 10 µM [2] | growth, % of control at 10 µM [3] | growth, % of control at 10 µM [4] | growth, % of control at 10 µM [5] | growth, % of control at 10 µM [6] | growth, % of control at 10 µM [7] | growth, % of control at 10 µM [8] | growth, % of control at 10 µM [9] | growth, % of control at 10 µM [10] | growth, % of control at 10 µM [11] | growth, % of control at 10 µM [12] | growth, % of control at 10 µM [13] | growth, % of control at 10 µM [14] | growth, % of control at 10 µM [15] | growth, % of control at 10 µM [16] | growth, % of control at 10 µM [17] | growth, % of control at 10 µM [18] | growth, % of control at 10 µM [19] |
| --- | --- | --- | --- | --- | --- | --- | --- | --- | --- | --- | --- | --- | --- | --- | --- | --- | --- | --- | --- |
| COc1ccc(/C=C(\C#N)c2ccc3c(c2)OCO3)cc1OC | 110% | 111% | 109% | 103% | 85.2% | 99.8% | 89.4% | 72% | 96.9% | 83% | 87.2% | 118% | 111% | 103% | 103% | 104% | 102% | 100% | 105% |
| COc1cc(/C=C(\C#N)c2ccc3c(c2)OCO3)cc(OC)c1OC |  | 96% | 108% | 92.2% | 87.2% | 85.7% | 96.5% | 88.6% | 88.5% | 83.5% |  | 97.5% | 100% | 98.9% | 96.5% | 96.3% | 93.9% | 88.7% | 103% |
| N#C/C(=C\c1ccc2ccccc2n1)c1ccc2c(c1)OCO2 | 90.2% | 41.4% | 63% | 95.3% | 78.5% | 79.7% | 89.7% | 87.1% | 84.9% | 60.5% | 84.6% |  | 80% | 68.3% | 51.9% | 60.8% | 64.3% | 77.5% | 25.8% |
| COc1ccc(/C=C(\C#N)c2ccc3c(c2)OCO3)c(Cl)c1OC |  | 92.3% | 100% | 85% |  | 63.9% |  |  |  | 51.1% | 71.6% | 106% | 78.3% | 79.1% | 84.8% | 100% | 60.5% |  | 89.2% |
| N#C/C(=C\c1ccsc1)c1ccc2c(c1)OCO2 |  | 112% | 103% | 102% | 79.7% | 107% | 104% | 83.5% | 104% | 86.5% | 87.1% | 110% | 101% | 114% | 96.7% | 90.8% | 113% | 110% | 102% |
| COc1ccc(/C(C#N)=C/c2ccc3c(c2)OCO3)cc1 | 93% | 95.3% | 88.7% | 91.4% | 70.4% | 59% | 72.1% | 66.6% | 64.7% | 39.3% | 60.8% |  | 91.4% | 79.9% | 95.4% | 94.7% | 75.3% | 81% | 88.6% |
